Source: publication PMC9101642 (Molecules, 2022)
Read-outs that look alike come from different tables or passages of the source. Marks after values point to notes of the source that are not given here.

Key:
MCF-7 cell lines = test: MTT antiproliferative assay; assay type: cell-based, human
MDA-MB-231 cell lines = test: MTT antiproliferative assay; assay type: cell-based, human
[1] = test system: MRC-5 human lung fibroblast cell lines
MCF-7 cells = test: Cell cycle distribution by flow cytometry; assay type: cell-based, human; settings: 24 h
[2] = test system: Ishikawa endometrial adenocarcinoma cells; test: Antiproliferative assay; assay type: cell-based; settings: Homo sapiens, growth inhibition
physchem = settings: pH 7.4
ERβ = ERβ (Homo sapiens, UniProt Q92731); test: Fluorescence polarization competition assay: antagonistic potency and relative binding affinity; settings: log of % relative binding affinity, estradiol = 100%
[3] = Serum biochemical markers after treatment of MNU-induced rats; assay type: in vivo, Wistar rats; settings: for ALP (A/L) / ALT (A/L) / AST (U/L) / γ-GT (U/L): serum; for TBC: total bilirubin content
Method: (§1) Rats were housed at 3 per cage and
(§2) The breast cancer was induced after the MNU (Sigma Aldrich CAS No. 684-93-5) administration. An aqueous solution at a concentration of 10 mg/ml was made by wetting the NMU powder with 3% acetic acid and then dissolving it in 0.9% NaCl solution; a fresh solution was prepared for each injection. Rats were given intraperitoneal (i.p.) 50 mg/kg of MNU on the 50th day of age. Animals were divided into different groups with six animals in each group. Group I (intact control) received 0.9% NaCl solution.
(§3) Groups II-IV and V-VII were introduced with MNU. Two weeks after MNU treatment, animals were treated orally with synthesized compounds and control substances (5 and 50 mg/kg, for groups II-IV and V-VII, respectively) by gavage once per day for six weeks. Animals in the intact control group and untreated MNU group were given vehicle (Tween 80) according to the experimental protocol. […]
Upon finishing the treatment with synthesized compounds, animals were sacrificed, and plasma, serum, and liver samples were collected.
Measurement of Serum Biochemical Markers
The activities of AST and ALT on 340 nm, and ALP on 405 nm, were determined by UV-Vis kinetic methods according to recommendations of the Expert Panel of the IFCC (International Federation of Clinical Chemistry). The colorimetric methods were used for the determination of total bilirubin (Jendrassik-Grof 550 nm method). All kinetic and colorimetric measurements were recorded using a Perkin-Elmer Lambda 25 UV/Vis spectrophotometer. […]

[4] = test system: progesterone receptor (PR); test: ERα functional antagonism cell assay (PR as biomarker) in MCF-7; assay type: cell-based; settings: Homo sapiens, MCF7; progesterone receptor as biomarker for ERα antagonism in MCF-7
[5] = test system: MNU-induced breast cancer tissue; test: Histopathology of breast sections; assay type: in vivo, Wistar rats
From the text: The impact of selected leads on BC tissue was registered after their administration to experimental animals with MNU-induced BC (Figure 9 and Supplementary Material Figures S211–S218). […] In contrast to this, the administered leads were harmless in both concentrations, neutralizing the MNU-induced changes, judging by the lobuloalveolar units and cuboidal epithelial cells found (Figure 9C,D, and Supplementary Material Figures S214–S218). […]
Histopathological Studies
histopathological changes. […]

[6] = Liver oxidative stress markers after treatment of MNU-induced rats; assay type: in vivo, Wistar rats; settings: rat, in vivo
Method: as §1, §2, §3
(§4) Upon finishing the treatment with synthesized compounds, animals were sacrificed, and plasma, serum, and liver samples were collected. […]
Determination of Antioxidant Markers in Liver Homogenate
Rat liver samples were homogenized in phosphate buffer (5 mM, pH = 7.4) to give a 10% (w/v) liver homogenate and then centrifuged at 4000 rpm for 15 min at 4°C. The supernatant of liver homogenate was used for the estimation of reduced glutathione (GSH) and catalase (CAT) levels by the colorimetric method. The contents of malondialdehyde (MDA) in the supernatant of the liver homogenates were determined using 1,1,3,3-tetraethoxypropane as standard. Total protein concentrations were determined according to the method of Lowry using bovine serum albumin as […]

[7] = Plasma protein binding determination; assay type: in vitro ADME, rat; settings: rat, plasma
Method: as §1, §2, §3, §4
Rat plasma containing either 5 or 50 mg/kg bwt of the tested compounds was incubated at 37°C upper reservoir of the washed Centri-free YM-30 ultrafiltration units (Millipore, Bedford, MA) and then centrifuged for 20 min at 2,000 g. Aliquots of the ultrafiltrates and unfiltered incubation mixtures were analyzed for the total protein concentration by the bicinchoninic acid assay for protein concentration (BCA assay; Pierce, Rockford, IL).

[8] = both, Wistar, rat, in vivo, po
[9] = test system: MNU-induced breast cancer; test: In vivo anticancer screening, MNU-induced mammary tumorigenesis; set-up: species or system female Wistar rats
[10] = rat, in vivo
ERα = target: T1, ERα (Homo sapiens, UniProt P03372); test: Fluorescence polarization competition assay: antagonistic potency and relative binding affinity; settings: virtually screened NCI hits, Table S17; read-out: ERα (IC50)
T1 sequence (P03372 1-595): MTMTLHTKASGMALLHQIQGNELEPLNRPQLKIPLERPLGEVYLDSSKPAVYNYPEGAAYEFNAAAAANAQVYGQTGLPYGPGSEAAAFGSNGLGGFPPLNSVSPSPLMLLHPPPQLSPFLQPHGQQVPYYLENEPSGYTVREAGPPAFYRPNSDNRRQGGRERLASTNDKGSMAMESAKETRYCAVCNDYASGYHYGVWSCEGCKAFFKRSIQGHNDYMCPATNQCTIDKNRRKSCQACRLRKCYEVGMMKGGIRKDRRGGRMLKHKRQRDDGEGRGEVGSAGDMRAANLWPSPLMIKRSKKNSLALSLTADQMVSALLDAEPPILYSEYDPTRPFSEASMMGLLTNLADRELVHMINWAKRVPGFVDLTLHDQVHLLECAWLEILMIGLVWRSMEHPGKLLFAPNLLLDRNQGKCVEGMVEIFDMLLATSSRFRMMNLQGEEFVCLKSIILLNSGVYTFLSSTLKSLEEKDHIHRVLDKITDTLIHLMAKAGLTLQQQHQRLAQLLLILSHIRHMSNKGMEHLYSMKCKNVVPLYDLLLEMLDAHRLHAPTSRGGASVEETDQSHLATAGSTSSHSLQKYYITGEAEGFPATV

[11] = virtually screened NCI hits, Table S17, read-out: MCF-7 (IC50)
[12] = virtually screened NCI hits, Table S17, read-out: MDA-MB-231 (IC50)
[13] = dose 50 mg/kg (compounds per os after MNU; MNU alone i.p.)

ERβ, sequence (Q92731 whole entry): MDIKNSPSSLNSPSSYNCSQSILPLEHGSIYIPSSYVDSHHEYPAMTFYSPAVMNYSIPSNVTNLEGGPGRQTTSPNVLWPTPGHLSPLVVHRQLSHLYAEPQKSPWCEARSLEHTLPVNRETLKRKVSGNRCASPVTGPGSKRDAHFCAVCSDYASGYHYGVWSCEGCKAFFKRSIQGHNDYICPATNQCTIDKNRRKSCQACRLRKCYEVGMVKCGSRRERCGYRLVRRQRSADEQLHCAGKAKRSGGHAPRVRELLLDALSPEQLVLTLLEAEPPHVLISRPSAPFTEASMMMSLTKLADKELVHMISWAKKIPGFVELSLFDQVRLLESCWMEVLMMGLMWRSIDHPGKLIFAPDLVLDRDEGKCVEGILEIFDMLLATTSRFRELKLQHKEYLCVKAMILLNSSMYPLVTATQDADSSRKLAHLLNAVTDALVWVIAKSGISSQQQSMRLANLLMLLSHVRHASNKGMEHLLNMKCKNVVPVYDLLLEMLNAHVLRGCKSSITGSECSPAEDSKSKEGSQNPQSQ

Which IC50 (MCF-7 cell lines; [11]) does the source give for O=c1c(-c2ccc(O)cc2)coc2cc(O)cc(O)c12 [Compound 36586] here?
The IC50 was > 100000 nM.

And the IC50 (MDA-MB-231 cell lines; [12])?
Its IC50 is > 100000 nM.

What about the IC50 [1] of the same compound?
The IC50 was > 100 µM.

For O=C(c1ccc(OCCN2CCCCC2)cc1)c1c(-c2ccc(O)cc2)sc2cc(O)ccc12 [Ral., Raloxifene, reference compound], which “Cell Cycle (%) G0/G1” value (MCF-7 cells; 0.1 nM) is on record?
Its value is 59.14 ± 0.54 *^,†,‡ %.

What about the “Cell Cycle (%) G2/M” value (MCF-7 cells; 0.1 nM) of the same compound?
Its value is 25.03 ± 0.35 *^,†,‡ %.

And the “Cell Cycle (%) S” value (MCF-7 cells; 0.1 nM)?
Its value is 15.83 ± 0.53 *^,†,‡ %.

And the “Cell Cycle (%) G0/G1” value (MCF-7 cells; 1 nM)?
The value was 66.52 ± 0.56 *^,†,‡ %.

And the “Cell Cycle (%) G2/M” value (MCF-7 cells; 1 nM)?
Its value is 17.11 ± 0.46 *^,†,‡ %.

And the “Cell Cycle (%) S” value (MCF-7 cells; 1 nM)?
Its value is 16.37 ± 0.46 *^,†,‡ %.

And the IC50 [2]?
Its IC50 is 0.97 ± 0.35 nM.

And the logD at 30 min (physchem)?
Its logD at 30 min is 2.39.

What about the “logRBA ERβ” value (ERβ) of the same compound?
The value was 1.42 ^†.

What about the IC50 (MCF-7 cell lines; read-out: MCF-7 (IC50 nM)) of the same compound?
The IC50 was 0.9 ± 0.19 nM.

What about the “ALP (A/L)” value ([3]; dose 5 mg/kg) of the same compound?
Its value is 99.54±0.32 A/L.

And the “ALT (A/L)” value ([3]; dose 5 mg/kg)?
Its value is 50.14±0.35 A/L.

And the “AST (U/L)” value ([3]; dose 5 mg/kg)?
Its value is 53.57±0.43 U/L.

What about the “γ-GT (U/L)” value ([3]; dose 5 mg/kg) of the same compound?
The value was 11.43 U/L.

What about the “ALP (A/L)” value ([3]; dose 50 mg/kg) of the same compound?
The value was 106.43±0.54 A/L.

And the “ALT (A/L)” value ([3]; dose 50 mg/kg)?
The value was 52.46±0.42 A/L.

What about the “AST (U/L)” value ([3]; dose 50 mg/kg) of the same compound?
The value was 58.41±0.32 U/L.

What about the “γ-GT (U/L)” value ([3]; dose 50 mg/kg) of the same compound?
Its value is 12.35±0.31 U/L.

What about the TBC ([3]; dose 5 mg/kg) of the same compound?
Its TBC is 18.53.

And the TBC ([3]; dose 50 mg/kg)?
Its TBC is 22.46.

What about the IC50 (MDA-MB-231 cell lines; growth inhibition, 48 h, read-out: MDA-MB-231 (IC50 nM)) of the same compound?
The IC50 was 93.41 ± 0.48 nM.

And the IC50 (MDA-MB-231 cell lines; references in Table S17, read-out: MDA-MB-231 (IC50 nM))?
Its IC50 is 93.12 ± 0.24 nM.

What about the IC50 [4] of the same compound?
The IC50 was > 100 nM.

And the breast section histopathology ([5]; 5 mg/kg of bwt)?
The breast section histopathology was “differentiated extralobular ducts (ED)”.

What about the breast section histopathology ([5]; 50 mg/kg of bwt) of the same compound?
The breast section histopathology was “differentiated extralobular ducts (ED)”.

What about the CAT ([6]; 5 mg/kg) of the same compound?
The CAT was 10.73±0.32.

And the “GSH” value ([6]; 5 mg/kg)?
The value was 6.65 mg/g.

And the “SOD (U/mg)” value ([6]; 5 mg/kg)?
Its value is 6.89±0.56 U/mg.

What about the “TBARS” value ([6]; 5 mg/kg) of the same compound?
Its value is 2.31 ± 0.56 nmol/mg.

What about the “TP” value ([6]; 5 mg/kg) of the same compound?
Its value is 42.67 g/L.

And the CAT ([6]; 50 mg/kg)?
The CAT was 14.43±0.56.

And the “GSH” value ([6]; 50 mg/kg)?
The value was 5.54 ± 0.36 mg/g.

What about the “SOD (U/mg)” value ([6]; 50 mg/kg) of the same compound?
The value was 8.46±0.23 U/mg.

What about the “TBARS” value ([6]; 50 mg/kg) of the same compound?
The value was 2.63 ± 0.21 nmol/mg.

And the “TP” value ([6]; 50 mg/kg)?
The value was 44.43 g/L.

And the fraction unbound at 5 mg/kg bwt [7]?
Its fraction unbound at 5 mg/kg bwt is 0.0185.

And the fraction unbound at 50 mg/kg bwt [7]?
Its fraction unbound at 50 mg/kg bwt is 0.019.

And the BIO ([8]; 5 mg/kg)?
Its BIO is 93 ^‡.

What about the BIO ([8]; 50 mg/kg) of the same compound?
Its BIO is 96.

And the “Tumor Burden (week)” value ([9]; dose 5 mg/kg per os after MNU)?
Its value is 3.11 ± 0.47 *^,†,‡ week.

What about the “Tumor Latency (week)” value ([9]; dose 5 mg/kg per os after MNU) of the same compound?
The value was 8 * week.

What about the “Tumor Volume (mm^3)” value ([9]; dose 5 mg/kg per os after MNU) of the same compound?
The value was 1.67 ± 0.31 *^,†,‡ mm^3.

What about the “Tumor Burden (week)” value [9, 13] of the same compound?
The value was 2.91 ± 0.22 *^,†,§ week.

And the “Tumor Latency (week)” value [9, 13]?
The value was 13 *^,† week.

And the “Tumor Volume (mm^3)” value [9, 13]?
Its value is 1.41 ± 0.54 *^,†§ mm^3.

And the “WL after MFD (day 1, mg)” value [10]?
The value was 310.54 ± 0.45 mg.

And the “WL after MFD (day 5, mg)” value [10]?
Its value is 300.54 ± 0.48 mg.

With O=C(O)c1ccccc1-n1c2ccccc2c2ccccc21 [Compound 10211] as the compound, how does the IC50 (ERα) read?
The IC50 was 66.9 ± 6.46 µM.

And the IC50 (MDA-MB-231 cell lines; [12])?
Its IC50 is > 100000 nM.

What about the IC50 [1] of the same compound?
Its IC50 is > 100 µM.

With COc1ccc(C(C#N)=C(c2ccccc2)c2ccccc2)cc1 [Compound 101789] as the compound, how does the IC50 (ERα) read?
The IC50 was 17.9 ± 1.34 µM.

What about the IC50 (MCF-7 cell lines; [11]) of the same compound?
The IC50 was 25900 ± 11400 nM.

What about the IC50 (MDA-MB-231 cell lines; [12]) of the same compound?
The IC50 was > 100000 nM.

And the IC50 [1]?
Its IC50 is 14.2 ± 11.4 µM.

With c1ccc(-n2c3ccccc3c3ccccc32)cc1 [Compound 10416] as the compound, how does the IC50 (ERα) read?
The IC50 was 74.8 ± 6.46 µM.

And the IC50 (MCF-7 cell lines; [11])?
Its IC50 is 89000 ± 11400 nM.

And the IC50 (MDA-MB-231 cell lines; [12])?
The IC50 was > 100000 nM.

And the IC50 [1]?
The IC50 was > 100 µM.

With O=C(c1ccccc1)c1ccccc1C(=O)c1ccccc1 [Compound 6145] as the compound, how does the IC50 (ERα) read?
Its IC50 is 75.5 ± 6.46 µM.

And the IC50 (MCF-7 cell lines; [11])?
Its IC50 is 93400 ± 11400 nM.

And the IC50 (MDA-MB-231 cell lines; [12])?
The IC50 was > 100000 nM.

What about the IC50 [1] of the same compound?
The IC50 was > 100 µM.
